Earlier results on one compound are cited in patent US20040247626A1, “Stable aqueous dispersion of 1, 2-benzisothiazoline-3-one (bit)” (priority 2004, published 2004).

For the compound `O=c1[nH]sc2ccccc12` [BIT, 1,2-benzisothiazolin-3-one], the solubility in water entry is “sparingly soluble”.
